Experimental data: US7572252B1 (priority 1995, dated 2009)

Experiment: Transdermal electrotransport goserelin delivery at two constant current densities (Example 4)
Format: in vivo, human
Method: This study was undertaken to evaluate the relationship between current density and drug flux in the transdermal electrotransport delivery of goserelin. The study involved the application of electrotransport devices, applying constant current, to 12 normal male volunteers for a duration of 8 hours.
The two electrotransport treatment regimens in this study differed only in applied current density levels. The electrotransport devices delivered goserelin through the skin from polyvinyl alcohol (PVOH)-based donor hydrogels having a skin-contact surface area of 4 cm^2. The gels contained an aqueous goserelin solution. The current density levels used in this study were 50 and 100 μA/cm^2. After an 8 hour treatment period, the electrotransport devices were removed. The skin site was then washed to remove any residual goserelin. All 12 volunteers received each treatment seven days apart.
For each treatment, seven blood samples were taken over a 24 hour period commencing with the application of current from the electrotransport devices. Serum goserelin concentrations from each patient were used to calculate mean drug flux and the mean total amount of drug delivered.

Which “average transdermal goserelin flux” value (50 microA/cm^2 constant current, 4 cm^2, 8 h) does the source give for `CC(C)C[C@H](NC(=O)[C@@H](COC(C)(C)C)NC(=O)[C@H](Cc1ccc(O)cc1)NC(=O)[C@H](CO)NC(=O)[C@H](Cc1c[nH]c2ccccc12)NC(=O)[C@H](Cc1cnc[nH]1)NC(=O)[C@@H]1CCC(=O)N1)C(=O)N[C@@H](CCCNC(=N)N)C(=O)N1CCC[C@H]1C(=O)NNC(N)=O` [goserelin] here?
Its value is 5.8 microgram per hour.

What about the “average transdermal flux of goserelin” value (100 microA/cm^2 constant current, 4 cm^2, 8 h) of the same molecule?
The value was 21.6 µg/h.

And the “increase in drug flux” value (current density rises from 50 to 100 μA/cm^2)?
The value was “almost four-fold increase”.
